Data as given in patent US20140005163A1 (NOVARTIS AG, priority 2010, published 2014).

Columns and labels:
[1] = In vitro skin penetration and permeation, pig skin in static Franz-type diffusion cells; type: in vitro ADME; settings: 0.5% solution in propylene glycol, 48 hours exposure, mean ± SD of triplicate; for Skin concentration: after removal of stratum corneum; for Permeation rate: receiver
Experimental: The skin penetration/permeation properties of two representative compounds of the present invention were tested as follows:
The compounds were applied as 0.5% solutions in propylene glycol to pig skin mounted in static Franz-type diffusion cells. At the end of a 48 hours exposure time, drug concentrations were measured in the skin (after removal of stratum corneum) and in the receiver.

[2] = In vivo penetration into dermis of topically treated pigs (skin PK); settings: pig dermis in vivo, topical 0.5% in PG/EtOH 7:3; mean ± SEM, n=8
Experimental: Small skin areas (4 cm^2) on the dorsolateral back of young domestic pigs were treated topically with 0.5% solutions at different time intervals (1-8 hrs) prior to drug level determination. Skin flaps with the treated sites in the centre were dissected and removed. The skin flaps were spread, and heated metal blocks placed on the test sites for 1 minute to induce separation of epidermis from the dermis. After removal of the loosened epidermal sheets, 1 mm thick dermal sheets were prepared from the treated, de-epidermized skin with a dermatome. From these sheets 6 mm punch samples (6 mm Ø) were collected and analysed for test compound concentration by LC/MS. The procedure described was done with careful avoidance of contamination of the dermal samples with compound attached superficially to the epidermis.
AUC means area under the curve, and is a well known term in clinical pharmacology. The AUC value describes the total uptake of the agent in a time interval.

SMILES	Skin concentration [1]	Permeation rate [1]	AUC (0-8 h) in dermis [2]
Cc1nn(C)cc1-n1c(=O)n(C)c2cnc3ccc(-c4cncc(OC(C)C)c4)cc3c21 [Example 58.1, 1-(1,3-Dimethyl-1H-pyrazol-4-yl)-8-(5-isopropoxy-pyridin-3-yl)-3-methyl-1,3-dihydro-imidazo[4,5-c]quinolin-2-one]	9.3 ± 6.2 µg/g	0.5 ± 0.3 ng/cm^2/hr	3.7 ± 1.3 µg·h/g
Cc1ncc(-c2ccc3ncc4c(c3c2)n(-c2cn(C)nc2C)c(=O)n4C)cc1OC(C)C [Example 84.1, 1-(1,3-Dimethyl-1H-pyrazol-4-yl)-8-(5-isopropoxy-6-methyl-pyridin-3-yl)-3-methyl-1,3-dihydro-imidazo[4,5-c]quinolin-2-one]	6.4 ± 3.5 µg/g	<0.4 ng/cm^2/hr	2.8 ± 1.0 µg·h/g
